Reference: patent US20230038360A1, “COMPOSITION FOR THE TREATMENT OF AMYLOID-BETA ASSOCIATED DISEASES” (BASF SE, priority 2019, published 2023)

Test system: C. elegans strain CL4176 expressing amyloid-beta peptide in muscle cells
Assay: Paralysis assay in transgenic C. elegans strain CL4176 expressing human Aβ1-42 peptide in muscle cells
Type: in vivo
Details: 1 mg/ml sodium propionate in nematode growth medium; after 24 hours; Aβ1-42 expression induced by temperature control
Text: The biological model C. elegans was used to study the effects of sodium propionate on amyloid-beta associated pathology. C. elegans has become an excellent and well recognized model for studying neurodegenerative diseases (Zhou et al., 2011; Hekimi et al., 2011; Kaletsky & Murphy, 2010). This nematode contains 302 neuron cells with neurotransmitters and neuropeptides similar to the mammalian nervous system. All the basic functions in the worm such as development, feeding and movement are controlled by the nervous system. The model is particularly useful for studying amyloid-beta associated pathologies, since transgenic strains have been generated able to express the human Aβ1-42 peptide in muscle cells, producing a progressive paralysis in the nematodes as a result of toxic effects (Link, 1995). Therefore, this model using such strains is useful to study substances in view of their ability to reduce β-amyloid peptide cell toxicity.
In the present experiment, the transgenic C. elegans strain CL4176 expressing amyloid-beta peptide in muscle cells was used. The worms were cultured in plates with nematode growth medium (control) or in plates supplemented with different concentrations of sodium propionate (test substance). The expression of Aβ1-42 peptide was induced in the nematodes by temperature control, and the percentage of worms paralyzed was determined at different time points. […]

CCC(=O)[O-].[Na+] [sodium propionate]
number of paralyzed C. elegans compared to the untreated Aβ1-42 peptide expressing C. elegans: significantly lower
